Measurements as given in patent US6495529B1 (Warner-Lambert Company, priority 1998, dated 2002).

Columns and labels:
Swiss-Webster mice = test: Locomotor stimulant and depressant effects in mice; conditions: mice, i.p.; for locomotor depressant effect (in words) / locomotor stimulant effect (in words): 2-hour session
Method: Male Swiss-Webster mice (HSD ND4, Harlan Sprague Dawley, Houston, Tex.) aged 2-3 months were used in these studies. Each dose group consisted of 8 mice. The mice were housed 2 to 4 per cage in 30.4×22.9×15.2 cm clear polycarbonate cages with food and water available ad libitum for at least one week prior to locomotor activity testing. The colony was maintained at 23±1° C., on a normal light-dark cycle beginning at 0700 hr. All testing took place during the light portion of the light-dark cycle.
Horizontal (forward movement) locomotor activity was measured using a standardized, optical activity monitoring system [Model KXYZCM (16), Omnitech Electronics, Columbus, Ohio]. Activity was monitored in forty 40.5×40.5×30.5 cm clear acrylic chambers that where housed in sets of two within larger sound-attenuating chambers. A panel of 16 infrared beams and corresponding photodetectors were spaced 2 cm apart along the sides and 2.4 cm above the floor of each activity chamber. A 7.5-W incandescent light above each chamber provided dim illumination via a rheostat set to 20% of full scale. Fans provided an 80-dB ambient noise level within the chamber.
(+)-Amphetamine was used as a positive control. The total horizontal distance traversed (cm) was recorded at 10 minute intervals for a 2-hour session. Separate groups of 8 mice were assigned to each dose or saline group, and dose-effect testing continued for each compound until maximal stimulant or depressant effects could be estimated. A separate control group was tested along with each compound.
Using TableCurve 2D v2.03 (Jandel Scientific), the mean average total distance traversed (cm/10 min) for that period was fit to a 3-parameter logistic peak function of log10 dose (with the constant set to the mean of the saline group), and the maximum effect estimated from the resulting curve. The ED50 (dose producing ½ maximal stimulant activity) was estimated from a linear regression against log10 dose of the ascending portion of the dose-effect curve. The stimulant efficacy was the peak effect of the compound (cm/10 min) as estimated from the logistic peak function, minus the mean control distance traveled (cm/10 min), and was expressed for each stimulant compound as a ratio to the stimulant efficacy determined for (+)-amphetamine.
The mean average total distance traversed (cm/10 min) for that period were fit to a linear function of log10 dose of the descending portion of the dose-effect curve. […] Efficacy was the ratio of maximal depressant effect to maximum possible depression for each compound (mean average total distance of the control group minus the lowest mean total distance, expressed as a ratio to the control group total distance).
Time course data for each compound were considered in 2-way analyses of variance with dose as a between-group and time as a within-group factor. The dose-effect data were considered in 1-way analyses of variance, and planned individual comparisons were conduced between each dose and the saline control group. Interaction studies were considered in 2-way analyses of variance, with Pretreatment and Test dose as the factors.

[1] = tested on: New Zealand white rabbits; test: Intraocular pressure (IOP) after topical application to rabbit eye
rats = test: Dosage that raised mean arterial pressure 10% in rat; format: in vivo
Sprague Dawley rats = test: Nasal airway pressure in normal (non-histamine-challenged) rats; conditions: for Mean Decrease in Nasal Airway Pressure: i.v.; for Mean decrease in nasal airway pressure, % Change: 100% dose i.v.; for Mean decrease in nasal airway pressure, % Change / Nasal airway pressure, Control: non-histamine-challenged rats; for Nasal airway pressure, Post Drug: after 100% dose (dose raising MAP 10%) into jugular vein; for Nasal airway pressure, Control: before drug
mongrel dogs = test: Intravenous dose increasing mean arterial pressure 10% in anesthetized dogs; conditions: anesthetized dog, i.v.
[2] = tested on: New Zealand white rabbits; test: Pupil diameter / mydriasis after topical application to rabbit eye
α1-receptors = format: binding, dog; conditions: read-out: Alpha-1 Ki
Method: The lungs of mongrel dogs were separated from cartilaginous airways and major blood vessels, weighted, chopped and placed into 10 volumes of ice-cold buffered sucrose (50 mM Tris-HCl pH 7.4, 1 mM EGTA, 0.32 M Sucrose). The tissue was then homogenized in a Polytron tissue homogenizer. The homogenate was filtered through two layers of cheesecloth, and the filtrate was dounced three times using a Con-Turque Potter homogenizer. […] The supernatant was recentrifuged at 30,000×g for 30 min at 4° C. and the resulting pellet was washed and resuspended in 10 volumes of Tris buffer (50 mM Tris HCL, pH 7.4, 1 mM EGTA) and incubated at 37° C. for 30 min in a shaking water bath. The suspension was centrifuged at 4° C., at 30,000×g for 30 min and the resulting pellet washed in 10 volumes of Tris buffer. […] Protein concentration was then determined by the Lowry method and the final suspension was adjusted to 10 mg of protein/ml, aliquoted and stored at −90° C.
Nonspecific binding was determined for each concentration point in separate incubations, with 10 μM phentolamine. Each experimental point was determined in triplicate. […] All binding assay incubations were terminated by rapid dilution with 2 ml of ice-cold wash buffer (50 mM Tris-HCl, pH 7.4) and filtration through Whatman GF/B filters using Brandel receptor-binding harvester.
All data were analyzed with the aid of microcomputer nonlinear curve fitting programs (PRISM 2.0, Graphpad Software, San Diego Calif.).
The receptors resident in each of the three membrane preparations were evaluated by standard saturation analysis following the addition of increasing concentrations of the appropriate radioligand. […]

[3] = drug 1% topical, drug treated eye (T), 0.5 hr
[4] = drug 1% topical, drug treated eye (T), 1 hr
[5] = drug 1% topical, drug treated eye (T), 3 hr
[6] = drug 1% topical, drug treated eye (T), 5 hr
[7] = drug 1% topical, drug treated eye (T), −0.5 hr (pre-treatment)
[8] = drug 1% topical, drug treated eye (T), −1 hr (pre-treatment)
[9] = drug 1% topical, untreated contralateral eye (U), 0.5 hr
[10] = drug 1% topical, untreated contralateral eye (U), 1 hr
[11] = drug 1% topical, untreated contralateral eye (U), 3 hr
[12] = drug 1% topical, untreated contralateral eye (U), 5 hr
[13] = drug 1% topical, untreated contralateral eye (U), −0.5 hr (pre-treatment)
[14] = drug 1% topical, untreated contralateral eye (U), −1 hr (pre-treatment), mean ± S.E.
[15] = drug 2% topical, drug treated eye (T), 0.5 hr
[16] = drug 2% topical, drug treated eye (T), 1 hr
[17] = drug 2% topical, drug treated eye (T), 3 hr
[18] = drug 2% topical, drug treated eye (T), 5 hr
[19] = drug 2% topical, drug treated eye (T), −0.5 hr (pre-treatment)
[20] = drug 2% topical, drug treated eye (T), −1 hr (pre-treatment)
[21] = drug 2% topical, untreated contralateral eye (U), 0.5 hr
[22] = drug 2% topical, untreated contralateral eye (U), 1 hr
[23] = drug 2% topical, untreated contralateral eye (U), 3 hr
[24] = drug 2% topical, untreated contralateral eye (U), 5 hr
[25] = drug 2% topical, untreated contralateral eye (U), −0.5 hr (pre-treatment)
[26] = drug 2% topical, untreated contralateral eye (U), −1 hr (pre-treatment)
[27] = 5% of the dose that increased MAP 10%, mean ± SEM
[28] = 10% of the dose that increased MAP 10%
[29] = 50% of the dose that increased MAP 10%

CNC[C@H](O)c1cccc(O)c1 [(−)-phenylephrine]
Depression Potency (ID50, dose resulting in ½ the maximal depressant effect) (Swiss-Webster mice): 2.3 mg/kg | Depression Time (30-min period following injection in which the maximal depression occurred) (Swiss-Webster mice): 0 to 30 min | Stimulation Time (30-min period following injection in which the maximal stimulant effect occurred) (Swiss-Webster mice): 60 to 90 min | locomotor depressant effect (in words) (Swiss-Webster mice): some locomotor depression | locomotor stimulant effect (in words) (Swiss-Webster mice): Little or no stimulant effects | IOP [1, 3]: 24 ± 0.6 mmHg | IOP [1, 4]: 24 ± 1.0 mmHg | IOP [1, 5]: 23 ± 1.5 mmHg | IOP [1, 6]: 21 ± 1.9 mmHg | IOP [1, 7]: 16 ± 1.5 mmHg | IOP [1, 8]: 20 ± 1.6 mmHg | IOP [1, 9]: 18 ± 1.6 mmHg | IOP [1, 10]: 19 ± 1.3 mmHg | IOP [1, 11]: 20 ± 1.9 mmHg | IOP [1, 12]: 19 ± 1.7 mmHg | IOP [1, 13]: 15 ± 2.1 mmHg | IOP [1, 14]: 16 ± 1.0 mmHg | IOP [1, 15]: 12 ± 0.8 mmHg | IOP [1, 16]: 14 ± 2.0 mmHg | IOP [1, 17]: 16 ± 0.8 mmHg | IOP [1, 18]: 14 ± 1.3 mmHg | IOP [1, 19]: 15 ± 1.5 mmHg | IOP [1, 20]: 18 ± 1.6 mmHg | IOP [1, 21]: 20 ± 2.0 mmHg | IOP [1, 22]: 20 ± 2.4 mmHg | IOP [1, 23]: 14 ± 1.7 mmHg | IOP [1, 24]: 14 ± 2.0 mmHg | IOP [1, 25]: 17 ± 1.9 mmHg | IOP [1, 26]: 17 ± 1.9 mmHg | Dosage of Enantiomer that Raised Mean Arterial Pressure 10%, Rat (rats): 3 to 5 µg | Mean Decrease in Nasal Airway Pressure (Sprague Dawley rats; [27]): −1.6 ± 0.9 mm water | Mean Decrease in Nasal Airway Pressure (Sprague Dawley rats; [28]): −4.8 ± 0.8 mm water | Mean Decrease in Nasal Airway Pressure (Sprague Dawley rats; 25% of the dose that increased MAP 10%): −12.1 ± 2.4 mm water | Mean Decrease in Nasal Airway Pressure (Sprague Dawley rats; [29]): −5.2 ± 1.6 mm water | Mean decrease in nasal airway pressure, % Change (Sprague Dawley rats): −20.3% | Nasal airway pressure, Post Drug (Sprague Dawley rats): 4 ± 0.2 mm H2O | Nasal airway pressure, Control (Sprague Dawley rats): 5 ± 0.2 mm H2 O | Intravenous Dose Needed to Increase MAP 10% (mongrel dogs): 10 µg/kg | Mydriatic Responses, TREATED EYE ([2]; 1% solution): ++ (++ = 2-4 mm change) | Mydriatic Responses, UNTREATED EYE ([2]; 1% solution): 0 | Mydriatic Responses, TREATED EYE ([2]; 2% solution): +++ (+++ >4 mm change) | Mydriatic Responses, UNTREATED EYE ([2]; 2% solution): +++ (+++ >4 mm change) | Pupil Diameter [2, 3]: 7 ± 0.4 mm | Pupil Diameter [2, 4]: 9 ± 0.4 mm | Pupil Diameter [2, 5]: 9 ± 0.4 mm | Pupil Diameter [2, 6]: 9 ± 0.4 mm | Pupil Diameter [2, 7]: 6 ± 0.4 mm | Pupil Diameter [2, 8]: 6 ± 0.4 mm | Pupil Diameter [2, 9]: 6 ± 0.4 mm | Pupil Diameter [2, 10]: 6 ± 0.4 mm | Pupil Diameter [2, 11]: 6 ± 0.4 mm | Pupil Diameter [2, 12]: 6 ± 0.4 mm | Pupil Diameter [2, 13]: 6 ± 0.4 mm | Pupil Diameter [2, 14]: 6 ± 0.4 mm | Pupil Diameter [2, 15]: 12 ± 0.2 mm | Pupil Diameter [2, 16]: 12 ± 0.2 mm | Pupil Diameter [2, 17]: 12 ± 0.2 mm | Pupil Diameter [2, 18]: 12 ± 0.2 mm | Pupil Diameter [2, 19]: 6 ± 0.2 mm | Pupil Diameter [2, 20]: 6 ± 0.2 mm | Pupil Diameter [2, 21]: 12 ± 0.2 mm | Pupil Diameter [2, 22]: 12 ± 0.2 mm | Pupil Diameter [2, 23]: 12 ± 0.2 mm | Pupil Diameter [2, 24]: 12 ± 0.2 mm | Pupil Diameter [2, 25]: 6 ± 0.2 mm | Pupil Diameter [2, 26]: 6 ± 0.2 mm | Ki (α1-receptors): 3 µM

CN[C@@H](C)[C@H](O)c1ccccc1 [(−)-ephedrine]
locomotor depressant effect (in words) (Swiss-Webster mice): did not cause locomotor depression | locomotor stimulant effect (in words) (Swiss-Webster mice): increased locomotion | onset of increased locomotion after injection (Swiss-Webster mice; (−)-ephedrine: following 50 to 100 mg/kg): ≤ 40 min | effect on IOP (in words) ([1]; topical 1% and 2%, rabbit, treated eye): increased IOP | Dosage of Enantiomer that Raised Mean Arterial Pressure 10%, Rat (rats): 30 µg | Mean Decrease in Nasal Airway Pressure (Sprague Dawley rats; [27]): −1.0 ± 0.8 mm water | Mean Decrease in Nasal Airway Pressure (Sprague Dawley rats; [28]): −2.5 ± 1.5 mm water | Mean Decrease in Nasal Airway Pressure (Sprague Dawley rats; [29]): −1.9 ± 2.0 mm water | Mean decrease in nasal airway pressure, % Change (Sprague Dawley rats): −14% | Nasal airway pressure, Post Drug (Sprague Dawley rats): 6 ± 0.5 mm H2O | Nasal airway pressure, Control (Sprague Dawley rats): 7 ± 0.8 mm H2 O | Intravenous Dose Needed to Increase MAP 10% (mongrel dogs): 100 µg/kg | Mydriatic Responses, TREATED EYE ([2]; 1% solution): 0 | Mydriatic Responses, UNTREATED EYE ([2]; 1% solution): 0 | Mydriatic Responses, TREATED EYE ([2]; 2% solution): +++ (+++ >4 mm change) | Mydriatic Responses, UNTREATED EYE ([2]; 2% solution): +++ (+++ >4 mm change) | Pupil Diameter [2, 3]: 6 ± 0.4 mm | Pupil Diameter [2, 4]: 6 ± 0.4 mm | Pupil Diameter [2, 5]: 6 ± 0.4 mm | Pupil Diameter [2, 6]: 6 ± 0.4 mm | Pupil Diameter [2, 7]: 6 ± 0.4 mm | Pupil Diameter [2, 8]: 6 ± 0.4 mm | Pupil Diameter [2, 9]: 6 ± 0.4 mm | Pupil Diameter [2, 10]: 6 ± 0.4 mm | Pupil Diameter [2, 11]: 6 ± 0.4 mm | Pupil Diameter [2, 12]: 6 ± 0.4 mm | Pupil Diameter [2, 13]: 6 ± 0.4 mm | Pupil Diameter [2, 14]: 6 ± 0.4 mm | Pupil Diameter [2, 15]: 9 ± 0.2 mm | Pupil Diameter [2, 16]: 9 ± 0.2 mm | Pupil Diameter [2, 17]: 9 ± 0.2 mm | Pupil Diameter [2, 18]: 9 ± 0.2 mm | Pupil Diameter [2, 19]: 5 ± 0.2 mm | Pupil Diameter [2, 20]: 5 ± 0.2 mm | Pupil Diameter [2, 21]: 9 ± 0.2 mm | Pupil Diameter [2, 22]: 9 ± 0.2 mm | Pupil Diameter [2, 23]: 9 ± 0.2 mm | Pupil Diameter [2, 24]: 9 ± 0.2 mm | Pupil Diameter [2, 25]: 5 ± 0.2 mm | Pupil Diameter [2, 26]: 5 ± 0.2 mm | mydriasis / effect on pupil diameter (in words) ([2]; topical, rabbit): had no effect on pupil diameter | Ki (α1-receptors): 47 µM
